Patent US11485732B2, “Compounds and uses thereof” (Foghorn Therapeutics Inc., priority 2020, dated 2022)

What was measured:
[1] = system: uveal melanoma and hematologic cancer cell lines versus the other tested cell lines; experiment: Growth of uveal melanoma, hematological and other cancer cell lines, day 3 and day 7, Cell-titer glo (Example 7); assay type: cell-based
[2] = system: uveal melanoma, hematologic cancer, prostate cancer, breast cancer, and Ewing's sarcoma cell lines versus the other tested cell lines; conditions: 0 to 10 μM; day 3 and day 7
parental MP41 cells = experiment: 7-day growth inhibition assay, parental cells (Example 14)
[3] = system: Uveal melanoma cell lines (92-1, MP41, MP38, MP46) and non-small cell lung cancer cells (NCIH1299); experiment: 3-day growth inhibition, Cell-titer glow (Example 12); assay type: cell-based; conditions: 0 to 10 μM, 3 days
[4] = Body weight change of tumor-bearing mice (Example 16); assay type: in vivo; conditions: all treatments, once daily oral gavage, 3 weeks
[5] = system: PKC inhibitor (PKCi)-resistant MP41 uveal melanoma cells; experiment: 7-day growth inhibition assay, PKC inhibitor-resistant cells (Example 14)
BRM = BRM (Homo sapiens, UniProt P51531); experiment: biochemical
BRM, sequence (P51531 whole entry): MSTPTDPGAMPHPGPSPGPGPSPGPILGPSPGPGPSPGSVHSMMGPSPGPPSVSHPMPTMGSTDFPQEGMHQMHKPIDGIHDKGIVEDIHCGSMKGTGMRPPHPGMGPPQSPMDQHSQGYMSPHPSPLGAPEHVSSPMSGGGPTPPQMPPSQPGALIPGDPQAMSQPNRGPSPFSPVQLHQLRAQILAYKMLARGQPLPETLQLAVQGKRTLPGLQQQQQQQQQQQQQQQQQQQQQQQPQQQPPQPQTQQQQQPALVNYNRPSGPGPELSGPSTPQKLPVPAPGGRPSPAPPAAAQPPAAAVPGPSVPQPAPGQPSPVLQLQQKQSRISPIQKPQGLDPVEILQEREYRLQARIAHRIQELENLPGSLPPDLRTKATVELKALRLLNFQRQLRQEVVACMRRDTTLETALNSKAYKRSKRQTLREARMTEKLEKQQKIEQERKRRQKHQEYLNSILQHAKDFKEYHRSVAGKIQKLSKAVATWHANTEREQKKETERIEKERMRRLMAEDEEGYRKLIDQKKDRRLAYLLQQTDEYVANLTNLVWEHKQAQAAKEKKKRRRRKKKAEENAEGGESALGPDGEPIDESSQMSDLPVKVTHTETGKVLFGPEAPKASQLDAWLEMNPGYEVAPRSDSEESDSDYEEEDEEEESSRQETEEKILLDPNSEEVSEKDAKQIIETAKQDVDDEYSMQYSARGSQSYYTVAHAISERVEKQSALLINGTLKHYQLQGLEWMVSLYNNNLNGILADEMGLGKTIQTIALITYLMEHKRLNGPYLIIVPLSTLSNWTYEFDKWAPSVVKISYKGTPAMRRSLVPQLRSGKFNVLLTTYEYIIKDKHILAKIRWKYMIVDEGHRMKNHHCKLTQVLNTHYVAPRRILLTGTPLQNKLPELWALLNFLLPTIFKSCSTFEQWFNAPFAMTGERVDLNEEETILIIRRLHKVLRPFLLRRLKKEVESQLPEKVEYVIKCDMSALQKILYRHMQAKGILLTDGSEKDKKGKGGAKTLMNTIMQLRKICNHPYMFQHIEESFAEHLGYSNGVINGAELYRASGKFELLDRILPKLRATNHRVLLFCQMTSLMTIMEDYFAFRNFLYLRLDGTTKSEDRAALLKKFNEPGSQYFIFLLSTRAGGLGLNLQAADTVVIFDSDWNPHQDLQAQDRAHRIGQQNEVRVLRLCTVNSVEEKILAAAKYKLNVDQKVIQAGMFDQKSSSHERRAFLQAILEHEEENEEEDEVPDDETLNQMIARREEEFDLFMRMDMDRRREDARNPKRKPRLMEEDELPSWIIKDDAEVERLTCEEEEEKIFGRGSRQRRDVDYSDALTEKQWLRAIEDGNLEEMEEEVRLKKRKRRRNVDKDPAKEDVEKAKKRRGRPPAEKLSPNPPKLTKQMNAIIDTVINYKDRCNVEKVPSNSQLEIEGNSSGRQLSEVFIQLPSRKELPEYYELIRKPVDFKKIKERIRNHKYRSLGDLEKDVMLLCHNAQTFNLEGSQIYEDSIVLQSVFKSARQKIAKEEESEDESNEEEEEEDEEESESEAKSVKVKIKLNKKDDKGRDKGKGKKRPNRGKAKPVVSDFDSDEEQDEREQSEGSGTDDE

[6] = Body weight change of tumor-bearing mice (Example 18); assay type: in vivo; conditions: all treatments, once daily oral gavage, 3 weeks
[7] = system: 92-1 uveal melanoma cells; experiment: Uveal melanoma tumor growth inhibition in vivo (Example 18); parameters: species or system Nude mice; conditions: once daily oral gavage, increasing doses, 3 weeks
[8] = system: Uveal melanoma cell lines (92-1, MEL202, MP41, MP38, MP46), prostate cancer cells (22RV1), acute leukemia cells (EOL1, THP1), and histocytic lymphoma cells …; experiment: 3-day growth inhibition, Cell-titer glow, all cell lines (Example 17); assay type: cell-based; conditions: 0 to 2 μM (uveal melanoma) or 0 to 1 μM (other cell lines), 3 days

For CSCC[C@H](NC(=O)c1ccc(N)cc1)C(=O)Nc1nc(-c2cccc(-c3ccncc3)c2)cs1 [Compound A], the “sensitivity of cell lines to growth inhibition (GI50, FIG. 1)” value ([1]; 0 to 10 μM, day 3 and day 7) was “more sensitive to BRG1/BRM inhibition than the other tested cell lines” and the “duration of growth inhibition” value ([1]; uveal melanoma and hematologic cancer cell lines) was “maintained through day 7”.

For CSCC[C@H](NC(=O)c1ccn(S(C)(=O)=O)c1)C(=O)Nc1nc(-c2cccc(-c3ccncc3)c2)cs1 [Compound B], the “sensitivity of cell lines to growth inhibition (FIG. 4)” value [2] was “more sensitive to BRG1/BRM inhibition than the other tested cell lines”, the “growth inhibition, parental MP41 cell line (FIG. 10)” value (parental MP41 cells) was “strong growth inhibition” and the “growth inhibition (FIG. 6)” value [3] was “potent growth inhibition in the cell lines”.

In the case of C[C@@H]1CN(c2cccc(-c3csc(NC(=O)CNC(=O)c4ccn(C(C)(C)C)c4)n3)n2)C[C@H](C)O1 [Compound C], the “tolerability, body weight change (FIG. 13)” value [4] is reported as “well tolerated with no body weight loss observed”.

For CC1(N)CCN(c2cccnc2NC(=O)c2nc(-c3ncccc3C(F)(F)F)cnc2N)CC1 [LXS196], the “sensitivity of PKCi-resistant cells relative to parental MP41 cells (FIG. 9, FIG. 10)” value [5] was “could tolerate growth at higher concentrations of LXS196 than could the parental MP41 cell line”.

In the case of [2H]C([2H])([2H])OC([2H])([2H])[C@@H](NC(=O)c1ccn(S(C)(=O)=O)c1)C(=O)Nc1nc(-c2cccc(N3C[C@@H](C)O[C@@H](C)C3)n2)cs1 [N—((R)-1-((4-(6-(cis-2,6-dimethylmorpholino)pyridin-2-yl)thiazol-2-yl)amino)-3-(methoxy-d3)-1-oxopropan-2-yl-3,3-d2)-1-(methylsulfonyl)-1H-pyrrole-3-carboxamide], the IC50 (BRM) is reported as 443 nM.

[2H]C([2H])([2H])OC([2H])([2H])[C@H](NC(=O)c1ccn(S(C)(=O)=O)c1)C(=O)Nc1nc(-c2cccc(N3C[C@@H](C)O[C@@H](C)C3)n2)cs1 [N—((S)-1-((4-(6-(cis-2,6-dimethylmorpholino)pyridin-2-yl)thiazol-2-yl)amino)-3-(methoxy-d3)-1-oxopropan-2-yl-3,3-d2)-1-(methylsulfonyl)-1H-pyrrole-3-carboxamide] showed an IC50 (BRM) of 4.6 nM.

For COC[C@H](NC(=O)c1ccn(S(C)(=O)=O)c1)C(=O)Nc1nc(-c2cccc(N3C[C@@H](C)O[C@@H](C)C3)n2)cs1 [N—((S)-1-((4-(6-(cis-2,6-dimethylmorpholino)pyridin-2-yl)thiazol-2-yl)amino)-3-methoxy-1-oxopropan-2-yl)-1-(methylsulfonyl)-1H-pyrrole-3-carboxamide], the “tolerability based on % body weight change (FIG. 16)” value [6] was “well tolerated”, the “tumor growth inhibition (FIG. 15)” value [7] was “tumor growth inhibition in a dose-dependent manner” and the IC50 (BRM) was 3.9 nM. The “growth inhibition (FIG. 14)” value [8] was “potent growth inhibition in all the cell lines”.
